Laboratory results published in US20050202111A1, “Anti-Parkinson's disease pharmaceutical and method of use” (priority 2004, published 2005).

Experiments:
[1] = system: N-methyl-4-phenyl-1,2,3,6-tetrahydropyridine induced dopaminergic neurodegeneration; settings: in vivo; cited from earlier work
[2] = system: mitochondrial complex-I; assay: In vivo effect on brain mitochondrial complex-I activity (NADH oxidation); parameters: species or system Sprague Dawley rats; settings: intraperitoneally for 2 weeks, brain mitochondrial (P2) fraction
Procedure: Various doses of MPX were administered intraperitoneally to Sprague Dawley rats for 2 weeks, while a control group was treated with saline. The rats were sacrificed one hour after the last injection, and the mitochondrial (P2) fraction was prepared from the dissected rat brains. Mitochondrial complex-I activity was based on the oxidation of NADH (5.6 mg in 1 ml water) measured at 340 nm (Ramsay et al. 1986. “Inhibition of mitochondrial NADH dehydrogenase by pyridine derivatives and its possible relation to experimental and idiopathic parkinsonism,” Biochem Biophys Res Commun 135:269-275 (this references is hereby incorporated by reference in its entirety)).

[3] = system: complex-I; settings: mouse, in vivo; cited from earlier work

O=C(O[C@@H]1Cc2c(O)cc(O)cc2O[C@@H]1c1cc(O)c(O)c(O)c1)c1cc(O)c(O)c(O)c1 [(−)-epigallocatechin-3-gallate]
dopaminergic neurodegeneration [1]: prevents N-methyl-4-phenyl-1,2,3,6-tetrahydropyridine induced dopaminergic neurodegeneration

N[C@@H](Cc1ccc(O)c(O)c1)C(=O)O [Levodopa, L-3,4-dihydroxyphenylalanine]
mitochondrial complex-I activity [2]: significantly inhibitory effect on complex-I

CC(=O)N[C@@H](CS)C(=O)O [N-acetylcysteine]
age-related decrease in complex-I activity [3]: can protect against age-related decrease in complex-I activity
